In publication PMC4752739, “Functional structure and antimicrobial activity of persulcatusin, an antimicrobial peptide from the hard tick Ixodes persulcatus” (Parasites & Vectors, 2016):
Where a SMILES comes first, the peptide text is derived from it. Bridges are numbered along the chain shown (N, C = ends).

Assays:
[1] = cited from earlier work
Source text: Host cytotoxicity of AMPs is a major limitation in their application as antimicrobial drugs. […] Not only that, but DNA damage was not detected in each cell treated with IP in neutral comet assay (Fig. 6). […] Moreover, in the hemolytic assay, we observed minimal hem ...

MRSA [2] = conditions: cited from earlier work
Source text: Host cytotoxicity of AMPs is a major limitation in their application as antimicrobial drugs. […] Not only that, but DNA damage was not detected in each cell treated with IP in neutral comet assay (Fig. 6). […] Moreover, in the hemolytic assay, we observed minimal hem ... || Treating MRSA infection is challenging owing to the remarkable ability of S. aureus to develop resistance to multiple antibiotics, thus limiting the number of viable therapeutic options. New anti-MRSA drugs called DAP were developed recently, but DAP-resistant bacteria have already been reported. Therefore, there is an urgent need to develop novel antimicrobials with unique mechanisms of action to combat MRSA, one of which is AMP [4]. It has been reported that tick AMP derived from Ornithodoros moubata, with an amino acid sequence similar to that of OMBAC (91 %) (Table 2) ...

BFCEs-K4DT = assay: Neutral comet assay, colon epithelial cells; type: cell-based, bovine; conditions: neutral conditions
Experimental: (§1) We prepared BFFs-NCC1 and BFCEs-K4DT treated or untreated with IP 50 μg/mL for 48 h as above experiment. These cells were harvested by centrifugation (800 g, 3 min) and washed with sterile Dulbecco’s Phosphate Buffered Saline (DPBS; GIBCO). To generate positive control for comet tails, a part of each cell is untreated with IP treated 25 μM KMnO4, and all samples placed for 20 min at 4 °C. The comet assay was performed under neutral conditions following the Trevigen protocol. Each cell at 1 × 10^5 cell/mL was combined with molten low-melting agarose at a ratio of 1 : 10 (vol /vol) and immediately pipetted 50 μL onto Comet slides. Slides were stored in the dark for 30 min at 4 °C before immersing in lysis solution overnight. The slides were immersed in freshly prepared neutral electrophoresis buffer (dissolved Tris base and sodium acetate in distilled water, pH 9.0) for 30 min at 4 °C. Gel electrophoresis was performed at 1 volt per cm (measured electrode to electrode) for 45 min in neutral electrophoresis buffer. The comet slides were immersed in DNA precipitation solution (7.5 M ammonium acetate containing 95 % ethanol) for 30 min at room temperature and then in 70 % ethanol for 30 min at room temperature. […] The slides were observed by fluorescence microscopy FSX100 (Olympus, Tokyo, Japan).

BFFs-NCC1 = assay: Neutral comet assay, fibroblasts; type: cell-based, bovine; conditions: neutral conditions
Experimental: as §1

[3] = tested on: methicillin-susceptible S. aureus (MSSA) clinical strains; assay: Growth inhibition test (MIC), MSSA; type: cell-based, Staphylococcus aureus; conditions: all 9 clinical isolates of MSSA
Experimental: (§2) In the growth inhibition test, we used 9 clinical strains of methicillin-susceptible S. aureus (MSSA) and 9 clinical strains of MRSA from patients in Jichi Medical University Hospital, using these strains in past report. The bacteria were grown in Trypto Soya (TS; Nissui, Tokyo, Japan) broth for 18–19 h at 37 °C.
(§3) The optical density at 660 nm (OD660) of pre-cultured bacteria was measured using an Ubest-35 (JASCO Corporation, Tokyo, Japan). The adjustment for an OD660 of 0.5 was conducted by adding TS broth. The bacteria were diluted to a final concentration of 1–5 × 10^4 colony forming units (CFUs) /mL with TS broth, after which 50 μL of bacterial suspension and 50 μL of peptide solution were mixed together in a 96-well plate. The peptide solution was prepared by two-fold dilution in TS broth, while the IP solution was prepared to final peptide concentrations of 40, 20, 10, 5, 2.5, 1.25, 0.625, 0.313, 0.157, and 0.079 μg/mL. Each mixture of bacteria and peptide solution was incubated at 37 °C. The OD660 of the cell suspension was measured after 20–24 h incubation by using a Synergy™ HT (BioTek, Winooski, VT, USA). A control was prepared by mixing 50 μL of bacterial suspension, 40 μL of TS broth, and 10 μL of HBSS. The minimal inhibitory concentration (MIC) of the peptides was defined as the lowest concentration of peptide that reduced growth by >90 %.

[4] = tested on: bovine fetal colon epithelial cells (BFCEs-K4DT); assay: Effect on mammalian cell growth and morphology, colon epithelial cells; type: cell-based; conditions: 50 μg/mL, 48 h
Experimental: (§4) In this study, we used bovine fetal fibroblasts (BFFs-NCC1) and bovine fetal colon epithelial cells (BFCEs-K4DT), which were maintained in the Laboratory of Animal Breeding and Genetics, Tohoku University Graduate School of Agricultural Science. The BFFs-NCC1 and BFCEs-K4DT were cultured in a cell culture dish and wrapped 12-well plates. The nutrient medium of each cell was Dulbecco’s modified Eagle’s medium (DMEM; Nacalai Tesque, Kyoto, Japan or Mediatech, Inc, Manassas, VA, USA) containing 10 % fetal bovine serum (Invitrogen, Carlsbad, CA, USA) and a 1 % antibiotic-antimycotic mixed stock solution (Nacalai Tesque). Then each cell was seeded into 12-well plates at 1 × 10^4 cell/well and 1 × 10^5 cell/well. After overnight incubation, the nutrient mediums were changed to DMEM with IP (0, 5, 10, 50 μg/mL), and cells were incubated for 24 h or 48 h (BFCEs-K4DT only 48 h) at 37 °C. Then, these were collected and measured using a trypan blue staining method, with an EVE™ Automatic cell counter (NanoEnTeK, Seoul, Korea). For BFCEs-K4DT, the morphology of untreated control (IP 0 μg/mL) and treated cell (IP 50 μg/mL) was observed.

[5] = tested on: bovine fetal fibroblasts (BFFs-NCC1); assay: Effect on mammalian cell growth, fibroblasts; type: cell-based; conditions: 50 μg/mL, 24 h or 48 h, trypan blue staining, automatic cell counter; triplicate
Experimental: as §4

MRSA [6] = assay: Short-time killing assay, MRSA; type: cell-based, Staphylococcus aureus; conditions: 1 h at 37 °C
Experimental: (§5) We selected 3 strains each of MSSA and MRSA used in the growth inhibition test. Unlike the growth inhibition test described above, an additional growth inhibition test was conducted using small test tubes. Each mixture of bacteria and peptide solution was incubated for 1 h at 37 °C. After the incubation, 100 μL aliquots were removed from the tubes and inoculated on TS agar plates. The plates were incubated overnight at 37 °C, after which colonies were counted. The same control was prepared as in the growth inhibition test described above. The data were then converted and expressed as a percentage (sample per control).

MSSA = assay: Short-time killing assay, MSSA; type: cell-based, Staphylococcus aureus; conditions: 1 h at 37 °C; for Susceptibility in short-time killing assay: colony count, % of control, triplicate
Experimental: as §5

MRSA clinical strains = assay: Growth inhibition test (MIC), MRSA; type: cell-based, Staphylococcus aureus; conditions: all 9 clinical isolates of MRSA
Experimental: as §2, §3

[7] = positive control, 25 μM, 20 min at 4 °C

Molecule: melittin
- Hemolytic activity [1]: hemolytic activity
- Antimicrobial activity against MRSA (MRSA [2]): antimicrobial activity against MRSA

Molecule: [K+].[O]=[Mn](=[O])(=[O])[O-] [KMnO4, reference compound]
- DNA damage (comet tails) (BFCEs-K4DT; [7]): some comet tails
- DNA damage (comet tails) (BFFs-NCC1; [7]): some comet tails

Molecule: CC[C@H](C)[C@@H]1NC(=O)[C@H](CO)NC(=O)[C@H](CCCNC(=N)N)NC(=O)[C@@H]2CSSC[C@@H](C(=O)N[C@@H](Cc3ccc(O)cc3)C(=O)N[C@@H](CO)C(=O)N[C@@H](CCCNC(=N)N)C(=O)O)NC(=O)[C@H]([C@@H](C)O)NC(=O)[C@@H]3CSSC[C@H](NC(=O)[C@H](C)NC(=O)CNC(=O)[C@H](CCC(N)=O)NC(=O)[C@H](CC(N)=O)NC(=O)[C@H](Cc4ccccc4)NC(=O)[C@@H]4CCCN4C(=O)[C@@H](NC(=O)CNC(=O)[C@H](Cc4ccccc4)NC(=O)CN)CSSC[C@H](NC(=O)[C@H](Cc4ccc(O)cc4)NC(=O)CNC(=O)CNC(=O)[C@H](CCCNC(=N)N)NC(=O)[C@H](CCCNC(=N)N)NC(=O)CNC1=O)C(=O)N[C@@H](C)C(=O)NCC(=O)N[C@@H](CC(C)C)C(=O)N[C@@H](Cc1ccccc1)C(=O)N[C@@H](CCCCN)C(=O)N[C@@H](CCC(N)=O)C(=O)N[C@@H]([C@@H](C)O)C(=O)N3)C(=O)N[C@@H](Cc1c[nH]cn1)C(=O)N[C@@H](CCCNC(=N)N)C(=O)N[C@@H](Cc1c[nH]cn1)C(=O)N2 [IP, persulcatusin] (H-GFGCPFNQGACHRHCRSIGRRGGYCAGLFKQTCTCYSR-OH; disulfide 4-25, 11-33, 15-35 (inferred); N-terminus and C-terminus assumed)
- MIC at which growth of all 9 clinical isolates was inhibited [3]: 1.25 µg/mL
- Cell morphology after treatment [4]: no morphological change
- Number of cells after treatment ([4]; trypan blue staining, automatic cell counter, triplicate): no significant differences
- DNA damage (comet tails) (BFCEs-K4DT; 50 μg/mL for 48 h): no comet tails
- Number of cells after treatment [5]: no significant differences
- Bactericidal activity within 1 h (MRSA [6]; MRSA): dose-dependent bactericidal activity
- Susceptibility in short-time killing assay (MRSA [6]; all MRSA strains (MR-1, 2, 3), colony count, % of control, triplicate): susceptible
- Bactericidal activity within 1 h (MSSA; MSSA): dose-dependent bactericidal activity
- Susceptibility in short-time killing assay (MSSA; strain MS-3): susceptible
- Susceptibility in short-time killing assay (MSSA; strains MS-1 and MS-2): relatively resistant
- MIC at which growth of all 9 clinical isolates was inhibited (MRSA clinical strains): 2.5 µg/mL
- DNA damage (comet tails) (BFFs-NCC1; 50 μg/mL for 48 h): no comet tails

Molecule: GYGCPFNQYQCHSHCSGIRGYKGGYCKGTFKQTCKCY [(No use), 91 % similar to OMBAC]
- MIC against MRSA (MRSA [2]): low MIC
